The target of the assay is E1-E2-DNA complex (Human papillomavirus 11, UniProt P04015). The assay is described as follows: E2-dependent E1 DNA binding assay (E1-E2 DNA assay). Particulars: E1-E2 DNA assay of Example 11, HPV-11. Put shortly: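 SPA-format binding of E1 (about 100-200 ng purified) and E2 (8 ng) to a 0.4 ng [33P]-labelled 400 bp HPV-11 origin probe, in 20 mM Tris pH 7.6, 100 mM NaCl, 1 mM DTT, 1 mM EDTA, for 1 h at room temperature. Complex captured 1 h with anti-E1 C-terminal antiserum on protein A-SPA beads and counted by scintillation; IC50 derived.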
E1-E2-DNA complex, sequence (P04015 whole entry, one chain of several): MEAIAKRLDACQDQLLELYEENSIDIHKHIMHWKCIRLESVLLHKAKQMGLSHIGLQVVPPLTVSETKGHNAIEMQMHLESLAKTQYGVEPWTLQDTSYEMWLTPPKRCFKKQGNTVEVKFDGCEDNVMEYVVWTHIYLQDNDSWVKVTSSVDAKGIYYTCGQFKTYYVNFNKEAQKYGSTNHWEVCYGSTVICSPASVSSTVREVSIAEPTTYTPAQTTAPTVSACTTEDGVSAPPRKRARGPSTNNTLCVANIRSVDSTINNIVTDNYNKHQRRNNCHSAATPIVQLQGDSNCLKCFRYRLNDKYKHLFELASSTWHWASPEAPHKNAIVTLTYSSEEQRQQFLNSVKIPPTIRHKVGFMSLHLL

The structures appear in SMILES notation.

The IC50 is the point on the concentration scale where inhibition reaches its midpoint. A high value points to weaker potency. Turning to `CC(=O)c1ccc(NC(=O)C2C(c3ccc4ccccc4c3)OC3(C(=O)c4ccccc4C3=O)C2C(=O)O)cc1` (stereo not drawn) [Compound 4004], the 50% inhibitory concentration (IC50) fell in the range of 0.5 to 5 µM.

For the molecule `O=C1C2C(c3ccc(Cl)cc3)OC3(C(=O)c4ccccc4C3=O)C2C(=O)N1c1ccc(C(F)(F)F)cc1` (stereo not drawn) [Compound 2015], the IC50 was in the range of 5 to 50 µM. Consider `O=C(Nc1cc(F)cc(F)c1)C1C(c2ccc(F)c(Cl)c2)OC2(C(=O)c3ccccc3C2=O)C1C(=O)O` (stereo not drawn) [Compound 1120], for which the half-inhibitory concentration (IC50) was 0.5 to 5 µM. As to `O=C(Nc1ccc(N2CCOCC2)cc1)C1C(c2ccc(Cl)c(Cl)c2)OC2(C(=O)c3ccccc3C2=O)C1C(=O)O` (stereo not drawn) [Compound 1034], the IC50 was less than 0.5 µM. For `O=C(NC1CCCCC1)C1C(c2ccc(Cl)c(Cl)c2)OC2(C(=O)c3ccccc3C2=O)C1C(=O)O` (stereo not drawn) [Compound 1082] the value was 0.5 to 5 µM; for `O=C(Nc1ccc2c(c1)OCO2)C1C(c2cc(Cl)cc(Cl)c2)OC2(C(=O)c3ccccc3C2=O)C1C(=O)O` (stereo not drawn) [Compound 1020], 5 to 50 µM; for `O=C(c1ccccc1)c1cccc(NC(=O)C2C(c3ccc(Br)c(Br)c3)OC3(C(=O)c4ccccc4C3=O)C2C(=O)O)c1` (stereo not drawn) [Compound 1103], 0.5 to 5 µM. As to `O=C(NC1CC1c1ccccc1)C1C(c2ccc(Br)c(Br)c2)OC2(C(=O)c3ccccc3C2=O)C1C(=O)O` (single isomer, unassigned) [Compound 1089], the 50% inhibitory concentration (IC50) is less than 0.5 µM. For `O=C(Nc1ccccc1OC(F)(F)F)C1C(c2ccc(Cl)c(Cl)c2)OC2(C(=O)c3ccccc3C2=O)C1C(=O)O` (stereo not drawn) [Compound 1139] the value was 0.5 to 5 µM.
